According to publication PMC4977052, “On the Utility of ToxCast™ and ToxPi as Methods for Identifying New Obesogens” (Environmental Health Perspectives, 2016):
Where two headings read alike, the source gives them in different places.

Key:
[1] = molecular target: T1, GAL4-hRXRα (Homo sapiens, UniProt P19793); assay: GAL4-hRXRα activation, transient transfection luciferase reporter in COS7 cells; type: cell-based
T1 construct: expressed in transfected cells; host or cells: COS7
Procedure: pCMX-Gal4, pCMX-Gal4-mPPARγ, and pCMX-Gal4-hRXRα were previously described ([Grün et al. 2006]). Transient transfections were performed in COS7 cells as described ([Chamorro-García et al. 2012]). Briefly, COS7 cells were seeded at 15,000 cells per well in 96-well tissue culture plates in 10% calf bovine serum. The following day, cells were transfected in Opti-MEM at ~ 90% confluency. One microgram of CMX-GAL4 effector plasmid was co-transfected with 5 μg tk-(MH100)4-luciferase reporter and 5 μg of CMX-β-galactosidase transfection control plasmids in Opti-MEM® using Lipofectamine® 2000 reagent (Invitrogen™ Life Technologies, Carlsbad, CA, USA), following the manufacturer’s recommended protocol. All chemicals were solvated in dimethyl sulfoxide (DMSO). After overnight incubation, the medium was replaced with Dulbecco’s Modified Eagle Medium (DMEM; HyClone, Logan, UT, USA), 10% resin charcoal stripped fetal bovine serum (FBS) plus ligands at concentrations indicated in the figure legends for an additional 24 hr. DMSO concentration was maintained at 0.05% across all chemical treatments. Cells were lysed and assayed for luciferase and β-galactosidase activity as previously described ([Forman et al. 1995]). All transfections were performed in triplicate and reproduced in multiple experiments. Data are reported as fold induction or reduction over vehicle ([…]) controls ± SEM (standard error of the mean) using standard propagation of error ([Bevington and Robinson 2003]). […] The EC50, EC10, IC50, and IC10 values from NCGC and ToxCast™ are reported from gain AC50 and AC10 values in the ToxCast™ 2014 release ([Filer et al. 2014]).
Figure 4 ToxPi Chemical Activity on PPARγ and RXRα. The ability of a graded dose series of ToxPi chemicals to activate (A) GAL4-mPPARγ or (B) GAL4-hRXRα was tested in transiently transfected COS7 cells. (A, B) Data points are averages of triplicate transfections (three biological replicates). […] ToxPi chemicals were tested in 3-fold serial dilutions from 100 μM through 0.137 μM, with the final data point being 0.05% DMSO. Data are depicted as fold induction over vehicle (0.05% DMSO) controls ± SEM. (A) Rosiglitazone serves as a positive control activator for GAL4-mPPARγ. (B) LG100268 (2-[1-(3,5,5,8,8-Pentamethyl-5,6,7,8-tetrahydro-2-naphthyl)cyclopropyl]pyridine-5-carboxylic acid) serves as a positive control activator for GAL4-hRXRα. (C) EC50 and EC10 values calculated from A and B are reported and compared to other assays (see Figure S1). ATG, Attagene GAL-PPARγ or GAL-RXRα activation assay; NCGC, GeneBLAzer® GAL-PPARγ or GAL-RXRα activation assays. Triphenyltin was previously published ([Kanayama et al. 2005]).

[2] = system: 3T3-L1 preadipocytes; assay: 3T3-L1 adipogenesis assay (lipid accumulation, adipogenic gene expression); type: cell-based; details: 0.02-20 μM, 5 days after MDI induction
Procedure, shortened: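 After 2-day MDI induction with biotin and pantothenate, 3T3-L1 cells were treated 5 days with chemicals at 0.02–20 μM (0.1% DMSO; 10 μM if toxic). Lipid read as Nile red/Hoechst fluorescence ratio; adipogenic genes by QPCR, 2^ΔΔCt versus 36b4, normalized to DMSO.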

[3] = system: C/EBP; parameters: method as in Knudsen et al. 2011; details: ToxCast Phase I 2011 release; NA = not active; ref Knudsen et al. 2011; read-out: ATGC CEBP AC50; cited from earlier work
[4] = system: PPRE; parameters: method as in Knudsen et al. 2011; details: ToxCast Phase I 2011 release; NA = not active; ref Knudsen et al. 2011; read-out: ATGC PPRE AC50; cited from earlier work
[5] = system: RXRα; details: ref Filer et al. 2014, cited from earlier work
[6] = system: PPARγ; details: ToxCast Phase I 2011 release; NA = not active; ref Knudsen et al. 2011; read-out: ATGT PPARγ AC50; cited from earlier work
[7] = system: RXRα; details: cited from earlier work
[8] = system: mouse bone marrow-derived mesenchymal stem cells (mBMSCs); type: cell-based; details: 14 days, Figure 7
Procedure: A total of 8 × 10^4 cells/well mouse bone marrow-derived mesenchymal stem cells (mBMSCs) (OriCell™) were seeded in 12-well plates in basic medium: high-glucose DMEM (Hyclone) containing 10% calf bovine serum (Premium Select, Atlanta Biologicals), 100 IU/mL penicillin, 100 μg/mL streptomycin, and 1 mM sodium pyruvate. mBMSCs were induced to differentiate in differentiation media (low glucose αMEM containing 15% fetal bovine serum (Premium Select, Atlanta Biologicals), 100 IU/mL penicillin, 100 μg/mL streptomycin and 2 mM L-glutamine) with adipogenic cocktail (500 μM isometylbutylxanthine, 1 μM dexamethasone, 5 μg/mL insulin) and either 500 nM ROSI, 50 nM TBT or ToxCast™ chemicals (as noted for 3T3-L1 cells) for 14 days, replacing the media every 3 days.
Cells were either fixed in 3.7% formaldehyde in phosphate-buffered saline (PBS) for 30 min at room temperature (RT) for lipid quantitation, or homogenized in TriPure (Roche, Mannheim, Germany) for gene expression analysis. For lipid quantitation, fixed cells were washed twice with PBS and maintained in PBS overnight at 4°C to release residual phenol red. Background of cells were measured prior to staining. Cells were stained with 1 μg/mL Nile red (CAS No. 7385-67-3) (to detect lipid accumulation) and 1 μg/mL Hoechst 33342 (ThermoFisher Scientific) (to detect nuclei as a surrogate for cell number) in PBS for 15 min in the dark at RT and washed twice with PBS. […] Background values of Hoechst and Nile red were subtracted from the RFUs after staining and the ratio RFUNile Red:RFUHoechst was calculated. Data are represented as mean ± SEM. Total RNA was isolated using TriPure (Roche) as recommended by the manufacturer. Reverse transcription and quantitative real-time RT-PCR (QPCR) were performed using Transcriptor RT and SYBR® Green Master Mix (Roche). cDNA was quantitated in a LightCycler® 480 System (Roche Diagnostics, Basel, Switzerland) using primer sets listed in Table S4. Each primer set amplified a single band as determined by gel electrophoresis and melting curve analysis. QPCR data were analyzed using the 2^ΔΔCt method ([Livak and Schmittgen 2001]) relative to ribosomal protein 36b4, normalizing to 0.1% DMSO vehicle. Error bars represent the SEM from four to six biological replicates calculated using standard propagation of error ([Bevington and Robinson 2003]).

T1 sequence (P19793 with tags, fused parts or gaps limits assumed): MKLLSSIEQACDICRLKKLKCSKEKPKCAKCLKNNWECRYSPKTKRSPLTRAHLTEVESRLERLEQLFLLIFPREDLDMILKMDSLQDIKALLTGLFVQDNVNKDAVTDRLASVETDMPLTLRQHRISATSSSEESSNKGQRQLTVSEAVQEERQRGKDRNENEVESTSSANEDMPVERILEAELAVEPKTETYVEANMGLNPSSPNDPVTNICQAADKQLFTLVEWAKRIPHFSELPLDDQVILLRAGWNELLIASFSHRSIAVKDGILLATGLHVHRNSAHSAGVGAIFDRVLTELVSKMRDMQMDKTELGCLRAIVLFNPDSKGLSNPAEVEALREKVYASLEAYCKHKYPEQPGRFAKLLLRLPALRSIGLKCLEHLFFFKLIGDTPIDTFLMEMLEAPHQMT

In the case of N#Cc1c[nH]cc1-c1cccc2c1OC(F)(F)O2 [Fludioxonil], the “Activation of RXRα” value ([1]; COS7, 100 μM through 0.137 μM) is reported as “activated RXRα”, the EC50 ([1]; COS7, ligands 24 hr, read-out: RXRα agonist: EC50, Fig 4B) is reported as 14.3 µM and the “RXRα agonist: EC10, Fig 4B” value ([1]; COS7, computed from EC50) is reported as 5.42 µM. The AC50 ([1]; Cos-7 transient transfection) was 14.3 µM, the “Activation COS7 (result in words): RXRα activator” value ([1]; Cos-7 transient transfection) was “RXRα activator” and the “Adipogenesis 3T3-L1 (result in words)” value [2] was “Positive”. The AC50 [3] was 21 µM, the AC50 [4] was 24 µM and the “RXRα agonist: EC10, ATG” value ([5]; AC10, ToxCast 2014 release) was 17.93 µM. The EC50 ([5]; gain AC50, ToxCast 2014 release, read-out: RXRα agonist: EC50, ATG) was 23.6 µM, the AC50 [6] was 28 µM and the “RXRα agonist: EC10, NCGC” value ([7]; AC10, ToxCast 2014 release, ref Filer et al. 2014) was 1.20 µM. For the same compound, the AC50 ([7]; ToxCast Phase I 2011 release, NA = not active, ref Knudsen et al. 2011, read-out: NCGC RXRα AC50) was 2700 nM, the EC50 ([7]; gain AC50, ToxCast 2014 release, ref Filer et al. 2014, read-out: RXRα agonist: EC50, NCGC) was 2240 nM and the “Adipogenic differentiation of mBMSCs (result in words)” value [8] was “could differentiate these uncommitted stem cells into adipocytes”.
